We go through four compounds from patent US6162459A, “Acyclovir transdermal delivery system” (priority 1997, dated 2000).

For one data set, the system named is HSV. Particulars: in vivo studies; cited from earlier work.
For data set [1], the system named is Varicella Zoster virus(VZV). To be noted: cited from earlier work.
In a further data set the test system is HSV 2. To be noted: cited from earlier work.
Data set [2] deals with HSV 1. To be noted: cited from earlier work.
The test system of the next data set is Epstein Barr virus(EBV). Particulars: cited from earlier work.
Data set [3] relates to HSV 1. To be noted: cited from earlier work. The source holds these as a separate data set.
A further data set concerns Cytomegalovirus(CMV). Particulars: cited from earlier work.
The conditions of data set [4]: used locally; cited from earlier work.
For data set [5] the following is noted: in vivo; cited from earlier work.
For data set [6] the following is noted: in vitro; cited from earlier work.
Data set [7] is classed as physicochemical. The text has this:
Since drugs are said to pass the skin through either polar pathways or norpolar pathways, it is instructive to examine the solubility parameters and lipophilic indices of such enhancers, the latter being calculated from the defermination of their k' values in the mobile phase of varying methanol concentrations of the HPLC method used.

Entries after “also recorded” stand apart in the source; their conditions may differ.

Take `Nc1nc2c(ncn2COCCO)c(=O)[nH]1` [ACV, 9-[(2-Hydroxyethoxy)methyl]-guanine]: in the data set on HSV, the “in vivo rating to treat HSV, comparison” value is “better than FIAC(D17) and DHPG(D2); also recorded: better than bromovinyldeoxy uridine(D16) being effective against both HSV 1 and HSV 2”. Moreover, in data set [1], the “activity against VZV” value is “active”. Further, in the data set with HSV 2, the “activity against HSV 2” value is given as “active”. Besides, the “drug concentration in the skin, local vs oral” value in the data set with HSV 1 [2] (local application vs given orally) is listed as 2-3 times lower. Besides, the “effect in the treatment of HSV 1, oral vs local” value in the data set on HSV 1 [2] (oral administration vs local application) was “better with oral administration than with local application”. In the data set with Epstein Barr virus(EBV), the “activity against EBV” value is on record as “active against EBV, but only during the productive cycle”. In addition, the “activity against HSV 1” value with HSV 1 [3] is given as “active; also recorded: especially HSV 1”. For the same compound, in the data set on Cytomegalovirus(CMV), the “activity against CMV” value is “active”. Further, in the data set with Cytomegalovirus(CMV) (compared with DHPG, Idoxuridine, Trifluridine, or Ara-A, in some case), the “effectiveness against CMV, comparison” value is recorded as “less effective against CMV as compared with DHPG, Idoxuridine, Trifluridine, orAra-A”.

Turning to `O=c1[nH]c(=O)n([C@H]2C[C@H](O)[C@@H](CO)O2)cc1I` [IDU], the “toxicity” value in [4] is “relatively low toxicities”.

For `CC1(C)[C@@H](O[C@H]2O[C@H](C(=O)O)[C@@H](O)[C@H](O)[C@H]2O[C@@H]2O[C@H](C(=O)O)[C@@H](O)[C@H](O)[C@H]2O)CC[C@]2(C)[C@H]3C(=O)C=C4[C@@H]5C[C@@](C)(C(=O)O)CC[C@]5(C)CC[C@@]4(C)[C@]3(C)CC[C@@H]12` [glycyrrhizin], the “effect against paw swelling” value in [5] is listed as “effective against paw swelling”. Moreover, the “anti-inflammatory property” value in data set [6] was “anti-inflammatory property”.

For the compound `CC1(C)CC[C@]2(C(=O)O)CC[C@]3(C)C(=CC[C@@H]4[C@@]5(C)CC[C@H](O)C(C)(C)[C@@H]5CC[C@]43C)[C@@H]2C1` [oleanolic acid], the “polarity” value in [7] is recorded as “opposite polarities”.
